In PMC9374667 (Communications Biology, 2022):
Values joined by “and” are separate entries in the source; they are usually repeats but may differ in a detail not shown here. Equal values may be shown once.

Legend:
[1] = tested on: db/db mice; experiment: Weekly fasting glucose levels of db/db mice; type: in vivo; details: for Weekly fasting glucose levels of db/db mice (Figure 5a): BJ 150mg/kg, individual mice 1-10, in mmol/L; for Fasting blood glucose level at the end of the treatment: mouse, in vivo
Protocol: (§1) The lean wild type control and the db/db control mice were given equal vehicle volume (0.5% CMC-Na solution). All mice were monitored for food intake, body weight, and fasting blood glucose during the 35-day trial. Glucose tolerance test (GTT) and insulin resistance test (ITT) were performed at 4 and 5 weeks of treatment, respectively. Metabolic analysis was performed at 5 weeks of treatment. At the end of the study, blood samples were taken through the retroorbital venous sinus of mice, fat depots (brown fat, inguinal subcutaneous fat, epididymal fat, perirenal fat and mesenteric fat depot) were dissected, weighed, and immediately frozen in liquid nitrogen and stored at −80 °C until required. Weight of fat depots are expressed in percentage (fat depots weight /bodyweight * 100%).

[2] = tested on: db/db mice; experiment: Fat depots weight (BAT, iWAT, eWAT; percentage of body weight); type: in vivo; design: key to BAT fat depot weight (Figure 4c): % of body weight (fat depot weight / body weight * 100%); details: db/db mice; for eWAT fat depot weight (Figure 4c) / iWAT fat depot weight (Figure 4c): in %; for Fat depots weight / body weight: individual mice
Protocol: as §1

[3] = tested on: db/db mice; experiment: Serum CHO, TG, FFA, LDL-C, HDL-C and ADPN in the fasted state; type: in vivo; details: db/db mice; for ADPN (Figure 4j) / FFA (Figure 4g) / HDL-C (Figure 4i) / LDL-C (Figure 4h): serum, individual mice 1-6; for Serum CHO / Serum TG: fasted state, individual mice
Protocol: The serum was collected by centrifugation at 3000 × g at 4 °C for 15 min and stored at −80 °C until analysis. TG, TC, LDL-C, HDL-C, and FFA were routinely tested on a Chemray 240 automatic biochemical analyzer (Chemray 240, Shenzhen, China). Serum levels of mouse adiponectin, interleukin6 (IL-6), tumor necrosis factor-α (TNF-α) were measured using commercial enzyme-linked immunosorbent assay (ELISA) kits (Nanjing Jiancheng Bioengineering Institute, Nanjing, China) and according to the manufacturer’s instructions. The levels of IL-6, TNF-α in 3T3-L1 adipocyte culture supernatant were also detected by ELISA.

[4] = tested on: 3T3-L1 adipocytes; experiment: Oil Red O staining and lipid quantification; type: cell-based, Murine; details: for Oil Red O staining of differentiated 3T3-L1 adipocytes spectrophotometric analysis: Figure 7b, replicates;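 for Oil Red O staining of differentiated 3T3-L1 adipocytes spectrophotometric analysis: treatment added on day 8 of adipocyte differentiation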
Protocol: Meanwhile, we conducted in vitro experiments to validate the role of BJ in adipocytes. […] These findings were similar to the results in vivo.
Murine 3T3-L1 preadipocytes were the kind gift of Prof. Wenbin Shang and Prof. Xizhong Yu (Nanjing University of Chinese Medicine, China). Cells were cultured in Dulbecco’s modified Eagle’s medium (DMEM) supplemented with 10% (vol/vol) fetal bovine serum (FBS), 1% (vol/vol) penicillin/streptomycin in an incubator at 37 °C and 5% CO2 (until confluent). Two days after the preadipocytes reached 100% confluency (designated day 0), the cells were cultured in DMEM with 10% FBS supplemented with IBMX (0.5 mM final concentration), DEX (1 μM final concentration), and insulin (10 μg/ml final concentration) for 3 days (days 0–3). Then the cells were cultured in a medium containing insulin (10 μg/ml final concentration) for another 3 days (days 3–6).
Lipid accumulation in differentiated adipocytes was observed by Oil Red O staining. The differentiated 3T3-L1 adipocytes were washed with PBS for 3 times and fixed with 4% paraformaldehyde for 30 min at room temperature. The fixed 3T3-L1 adipocytes were washed with PBS for 3 times and stained with Oil Red O solution at room temperature for 60 min. Stained lipid droplets were photographed and then eluted with 100% isopropanol stained Oil Red O. Finally, the optical density (OD) value of the eluent was measured at 510 nm wavelength with a microplate reader.

[5] = tested on: cAMP; experiment: cAMP levels in eWAT of db/db mice (isoproterenol); type: in vivo; design: cAMP levels in eWAT (Figure 4l): unit not given here; details: for cAMP levels in eWAT (Figure 4l): individual samples 1-6
Protocol: The epididymal adipose tissue was dissected, the fresh adipose tissue was weighed and rapidly rinsed with PBS. The adipose tissue was cut and incubated with isoproterenol (10 μM) for 2 h, and homogenized in a cold cleavage buffer to prepare the adipose tissue homogenate. Then the homogenate was centrifuged at 12,000 × g at 4 °C for 15 min, and the supernatant was collected. For 3T3-L1 adipocytes, the adipocytes were treated with or without 50 ng/ml TNF-α or 3 μg IKKε plasmid or 4 μM siIKKε for 24 h and then treated with or without 10 μM ISO or 10 μM BJ for 24 h. Then the cells were lysed in a petri dish, scraped off, and centrifuged at 12,000 × g at 4 °C for 15 min before the supernatant was collected.
Glycerol or cAMP content in adipose tissue and 3T3-L1 adipocytes was determined by a glycerol assay kit (Nanjing Jiancheng Bioengineering Institute, Nanjing, China) or a mouse cAMP assay kit (Nanjing Jiancheng Bioengineering Institute, Nanjing, China). And concentrations were further standardized according to protein concentration.

[6] = BJ 75mg/kg, individual mice 1-10
[7] = BJ 150mg/kg, individual mice 1-10
[8] = vs vehicle, BJ 75 and 150 mg/kg, BBR 150 mg/kg, Ibu 150 mg/kg

## CC(C)Cc1ccc(C(C)C(=O)[O-])cc1.COc1ccc2cc3[n+](cc2c1OC)CCc1cc2c(cc1-3)OCO2.O.O.O.O [BJ, berberine-ibuprofen]
[1]; 2nd of 6 weekly columns (time not given)
  Weekly fasting glucose levels of db/db mice (Figure 5a): 13.5 and 10.8 and 19.3 and 10.6 and 16.2 and 16.8 and 22.9 and 16.4
[1]; 3rd of 6 weekly columns (time not given)
  Weekly fasting glucose levels of db/db mice (Figure 5a): 19.8 and 11.7 and 18.2 and 15.6 and 20.6 and 18.3
[1]; 4th of 6 weekly (time not given)
  Weekly fasting glucose levels of db/db mice (Figure 5a): 11.5 and 5.7 and 10.5 and 13.7 and 14.1 and 14.7
[1]; 5th of 6 weekly (time not given)
  Weekly fasting glucose levels of db/db mice (Figure 5a): 6.7 and 14.3 and 13.7 and 9.3 and 8.8 and 13.9
[1]; 6th of 6 weekly (time not given)
  Weekly fasting glucose levels of db/db mice (Figure 5a): 6.5 and 5.0 and 10.0 and 11.4 and 7.4 and 7.3 and 17.8
[1]; db/db mice, BJ 75 and 150 mg/kg, BBR 150 mg/kg, Ibu 150 mg/kg
  Blood (serum) glucose levels compared with vehicle: slowed the increase in glucose levels
[1]; 75 mg/kg
  Fasting blood glucose level at the end of the treatment: 13.6 ± 3.0 mmol/L
[1]; 150 mg/kg
  Fasting blood glucose level at the end of the treatment: 9.4 ± 3.6 mmol/L
[2]; [6]
  BAT fat depot weight (Figure 4c): 1.4827 and 0.5576 and 2.7679 and 1.5898 and 1.8729 and 1.268 and 0.7299 and 1.4681 and 1.4209 and 1.9195
  eWAT fat depot weight (Figure 4c): 2.9499 and 3.004 and 3.3073 and 3.0683 and 2.8654 and 1.9039 and 2.9972 and 3.1786 and 2.5863 and 2.885
  iWAT fat depot weight (Figure 4c): 2.9834 and 2.2193 and 4.5703 and 3.1934 and 4.0303 and 2.1465 and 2.6777 and 3.7948 and 2.2136 and 4.2859
[2]; [7]
  eWAT fat depot weight (Figure 4c): 2.6032 and 2.4699 and 2.5757 and 2.9739 and 2.5582 and 2.4535 and 2.305 and 2.1485 and 2.4952 and 2.1171
  iWAT fat depot weight (Figure 4c): 2.0087 and 2.2014 and 2.1848 and 3.5434 and 3.664 and 1.962 and 0.513 and 2.1562 and 2.8234 and 1.567
[2]; 75 mg/kg for 35 days, 75 mg/kg
  Fat depots weight / body weight: 17.3087% and 20.1428% and 17.1651% and 21.4638% and 17.3569% and 14.6768% and 23.7077% and 20.828% and 19.5629% and 16.4679%
[2]; 150 mg/kg for 35 days, 150 mg/kg
  Fat depots weight / body weight: 11.5274% and 15.536% and 18.4944% and 12.6638% and 16.2402% and 14.3781% and 12.8992% and 19.8596% and 21.4381% and 12.5947%
[2]; BJ 75 and 150 mg/kg, BBR 150 mg/kg, Ibu 150 mg/kg
  Fat depots weight compared with vehicle: lower fat depots weight than vehicle-treated db/db mice
[3]; BJ 75mg/kg
  ADPN (Figure 4j): 460 and 566.78 and 483.17 and 443.62 and 491.01 and 609.29
  FFA (Figure 4g): 641.9 and 692.8 and 709.3 and 711.6 and 731.5 and 667
  HDL-C (Figure 4i): 2.6 and 2.7 and 3.1 and 2.1 and 3 and 2.4
  LDL-C (Figure 4h): 4.35 and 5.54 and 4.19 and 5.48 and 5.18 and 4.51
[3]; BJ 150mg/kg
  ADPN (Figure 4j): 563.3 and 624.62 and 712.07 and 705.63 and 665.38 and 609.46
  FFA (Figure 4g): 697.7 and 666.2 and 614.5 and 627 and 678.9 and 614.6
  HDL-C (Figure 4i): 3.5 and 2.9 and 2.4 and 2.8 and 2.7 and 3.1
  LDL-C (Figure 4h): 3.35 and 4.57 and 3.32 and 3.26 and 3.43 and 3.59
[3]; 75 mg/kg
  Serum CHO: 4.2 mmol/L and 4.3 mmol/L and 4.6 mmol/L and 3.4 mmol/L and 6.1 mmol/L and 5.3 mmol/L
  Serum TG: 0.92 mmol/L and 1.17 mmol/L and 1.79 mmol/L and 1.19 mmol/L and 1.62 mmol/L and 1.33 mmol/L
[3]; 150 mg/kg
  Serum CHO: 3.2 mmol/L and 4.9 mmol/L and 4.5 mmol/L and 4.2 mmol/L and 3.7 mmol/L and 4.6 mmol/L
  Serum TG: 1.18 mmol/L and 1.01 mmol/L and 1.29 mmol/L and 1.1 mmol/L and 1.5 mmol/L
[3]; [8]
  Serum levels of CHO, TG, FFA and LDL-C: decreased
  Serum levels of HDL-C and adiponectin (ADPN): increased
[4]; 3μM BJ
  Oil Red O staining of differentiated 3T3-L1 adipocytes spectrophotometric analysis: 0.6023 O.D. and 0.5794 O.D. and 0.5902 O.D. and 0.5901 O.D. and 0.5958 O.D. and 0.5823 O.D.
[4]; 10μM BJ
  Oil Red O staining of differentiated 3T3-L1 adipocytes spectrophotometric analysis: 0.6036 O.D. and 0.5893 O.D. and 0.5433 O.D. and 0.5202 O.D. and 0.5568 O.D. and 0.48 O.D.
[4]; differentiated 3T3-L1 adipocytes, BJ 3 μM and 10 μM, 24 h, Oil Red O
  Accumulation of lipid droplets: reduced the accumulation of lipid droplets in 3T3-L1 adipocytes in a dose-dependent manner
[5]; db/db mice, isoproterenol stimulation
  cAMP levels in eWAT: increased the cAMP levels
[5]; db/db+ISO+BJ 75mg/kg
  cAMP levels in eWAT (Figure 4l): 0.344 (2×) and 0.3396 and 0.3778 and 0.3937 and 0.3516
[5]; db/db+ISO+BJ 150mg/kg
  cAMP levels in eWAT (Figure 4l): 0.3909 and 0.4246 and 0.4135 (2×) and 0.4162 and 0.4061
